Experimental data published in patent publication US4999372A, “New aminochromanol compounds” (ADIR et Compagnie, priority 1988, dated 1991).
Like-named read-outs stand apart in the source and are kept apart here.

Legend:
aorta of the rat [1] = test: Relaxation of rat aortic rings contracted by potassium depolarisation (KCl); format: cell-based; conditions: rat aorta rings without endothelium
Procedure: (§1) Male Wistar rats (325-375 g) are anaesthetised i.p. using sodium pentobarbital (30 mg/kg). The thoracic aorta and the mesenteric portal vein are removed. The aorta is dissected into rings 3 mm long and the endothelium is removed mechanically.
(§2) The organs are placed in a 20 ml thermostatically controlled vessel containing a physiological solution composed of (mM): NaCl 112; KCl 5; KH2 PO4 1; MgSO4 1.2; CaCl2 2.5; NaHCO3 25; glucose 11.5; EDTA 0.1; pH: 7.4; 37° C.; 95% O2 +5% CO2.
(§3) The initial force applied is 2 g in the case of the aorta and 0.5 g in the case of the portal vein. The variations in force are measured by a STATHAM sensor connected to a transducer amplifier (GOULD) and are monitored continuously on a GOULD 2400 graphic recorder.
(§4) The experimental protocols are as follows: After a stabilisation period of 90 minutes, the aortic rings are subjected to various tests:
potassium depolarisation:
The preparations are exposed to a 30 mM or 80 mM KCl (and 87 and 37 mM NaCl, respectively) hyperpotassium medium; after 30 minutes' stabilisation of contraction, cumulative concentrations of the product to be tested are added every 15 minutes. The relaxation values obtained allow the IC50 s to be calculated.
(§5) The products are used in a form dissolved in water or a suitable solvent.
(§6) The concentrations expressed refer to the final concentrations in terms of base in the isolated organ baths.

aorta of the rat [2] = test: Reactivity of rat aortic rings to 4-aminopyridine (4 AP); format: cell-based; conditions: product 10^-5 M, 4 AP 5 mM; listed as Ex. 1 Form A
Procedure: as §1, §2, §3, §4
reactivity to 4-aminopyridine (4 AP)
The product to be tested, at a given concentration, or its solvent, is incubated in the normal physiological solution 15 minutes before the addition of the 4 AP (5 mM).
The maximum amplitudes of the responses to the 4 AP in the presence of the product or the solvent are compared.
as §5, §6

anaesthetised dog = test: Haemodynamic study in the anaesthetised dog (vascular resistances), i.v.; format: in vivo
Procedure: A complete haemodynamic study was carried out on mongrel dogs weighing from 25 to 30 kg, which were anaesthetised with sodium pentobarbital 30 mg/kg i.v., intubated and ventilated and subjected to a thoracotomy at the 5th left intercostal space. The measurement of the […] is carried out using electromagnetic rings positioned at the level of the ascending aorta and the circumflex branch of the left coronary artery, respectively, and connected to GOULD SP 2202 electromagnetic flow meters. The aortic pressure is measured by a MILLAR probe introduced via the femoral artery.
The total peripheral vascular resistance values (TPR) and the mean coronary vascular resistance values (CVRM) are calculated by the ratio between the mean aortic pressure and the mean cardiac output and the mean coronary output, respectively. The products tested were injected via the femoral vein in a form dissolved in water or a suitable solvent.
The evolution of the vascular resistances, expressed as percentage variation with respect to the control values, is presented as a function of time in the following Table.

[3] = tested on: spontaneously hypertensive rat (SHR); test: Arterial pressure in the conscious spontaneously hypertensive rat (SHR), oral; format: in vivo
Procedure: The study is carried out on SHR male rats (Charles River) weighing from 260 g to 330 g and aged from 18 to 20 weeks. A polyethylene catheter is positioned at the level of the abdominal aorta and tunnelised at the level of the neck under anaesthesia (ketamine hydrochloride 150 mg/kg intraperitoneally). The animals, placed in movement-restraining cages, are tested in the conscious state at least 48 hours after intervention. The arterial pressure, measured by a STATHAM P23 pressure sensor connected to the abdominal catheter, is registered on a GOULD 2400 recorder. […] The doses administered are expressed in mg/kg of base.
The results obtained with a certain number of representative products of the invention and a reference product, CROMAKALIM, are grouped in the following Table. The variations in systolic and diastolic arterial pressure (PAS and PAD) presented at the most significant times after treatment are expressed as percentage variation with respect to the control values.

[4] = tested on: conscious renally hypertensive dog; test: Arterial pressure in the conscious renally hypertensive dog; format: in vivo; conditions: gastric intubation, 0.1 mg/kg
Procedure: Mongrel dogs weighing from 20 to 25 kg are used. A silastic catheter positioned under anaesthesia (sodium pentobarbital 30 mg/kg i.v.) at the level of the abdominal aorta and left over a prolonged period permits the later measurement of the arterial pressure in the conscious animals. Arterial hypertension is induced by a second intervention under anaesthesia consisting in a constriction of the left renal artery using a clip, which reduces its rate of flow by approximately 70%, the left kidney is enveloped in a latex capsule and the contralateral kidney is left in place.
The systolic and diastolic arterial pressures (PAS and PAD) are measured using a STATHAM P23 pressure sensor connected to the silastic catheter and linked to a GOULD pressure amplifier. The products are tested on the animals, which have become hypertensive, in the conscious state, at least one week after the second intervention. The arterial pressure is monitored continuously on an ES1000 GOULD recorder until 7 hours have elapsed after the treatment and then until 24 hours have elapsed.
The products to be tested are administered via the digestive system, after gastric intubation, in a form dissolved in water or a suitable solvent. The doses administered are expressed in mg of base with respect to body weight.
The representative products of the invention were compared with the reference product (CROMAKALIM). The variations in the systolic and diastolic arterial pressures (PAS and PAD), presented at the most significant times after treatment, are expressed as percentage variation with respect to the control values.

[5] = Rattus norvegicus, 80 mM KCl, read-out: IC50 (M) KCl 80 mM

In the case of CC1(C)Oc2ccc(C#N)cc2C(N2C(=O)CC[C@H]2CO)C1O (single isomer, unassigned) [Example 1 form A, 3R,4S- or 3S,4R-trans-2,2-dimethyl-3-hydroxy-4-(2-oxo-5S-hydroxymethyl-1-pyrrolidinyl)-6-cyanochroman], the IC50 (aorta of the rat [1]; [5]) is reported as greater than 0.0001 M, the IC50 (aorta of the rat [1]; 30 mM KCl, listed as Ex. 1 Form A, read-out: IC50 (M) KCl 30 mM) is reported as 7.7e-06 M and the “% inhibition of the response to 4AP” value (aorta of the rat [2]) is reported as 35%. For the same compound, the “Variation (%) of CVRM after treatment” value (anaesthetised dog; 300 μg/kg, 1 min) was -81.5%, the “Variation (%) of TPR after treatment” value (anaesthetised dog; 300 μg/kg, 1 min) was -41.9% and the “Variation (%) of CVRM after treatment” value (anaesthetised dog; 300 μg/kg, 10 min) was -50.3%. For the same compound, the “Variation (%) of TPR after treatment” value (anaesthetised dog; 300 μg/kg, 10 min) was -17.2%, the “Variation (%) of CVRM after treatment” value (anaesthetised dog; 300 μg/kg, 30 min) was -34.9% and the “Variation (%) of TPR after treatment” value (anaesthetised dog; 300 μg/kg, 30 min) was -12.9%.
With CN(C)C[C@@H]1CCC(=O)N1C1c2cc(C#N)ccc2OC(C)(C)C1O (single isomer, unassigned) [Example 3 form A, 3R,4S- or 3S,4R-trans-2,2-dimethyl-3-hydroxy-4-(2-oxo-5S-dimethylaminomethyl-1-pyrrolidinyl)-6-cyanochroman] the “Variation (%) of CVRM after treatment” value (anaesthetised dog; 3000 μg/kg, 1 min) was “+2.5%”, the “Variation (%) of TPR after treatment” value (anaesthetised dog; 3000 μg/kg, 1 min) was “+1.7%” and the “Variation (%) of CVRM after treatment” value (anaesthetised dog; 3000 μg/kg, 10 min) was -38.5%. The “Variation (%) of TPR after treatment” value (anaesthetised dog; 3000 μg/kg, 10 min) was -6.8%, the “Variation (%) of CVRM after treatment” value (anaesthetised dog; 3000 μg/kg, 30 min) was -49.0% and the “Variation (%) of TPR after treatment” value (anaesthetised dog; 3000 μg/kg, 30 min) was -8.5%.
For COC[C@@H]1CCC(=O)N1C1c2cc(C#N)ccc2OC(C)(C)C1O (single isomer, unassigned) [Example 2 form A, 3S,4R- or 3R,4S-trans-2,2-dimethyl-3-hydroxy-4-(2-oxo-5S-methoxymethyl-1-pyrrolidinyl)-6-cyanochroman], the IC50 (aorta of the rat [1]; Rattus norvegicus, 30 mM KCl, read-out: IC50 (M) KCl 30 mM) was 2.8e-07 M, the IC50 (aorta of the rat [1]; [5]) was greater than 0.0001 M and the “Variation (%) of PAD after treatment” value ([3]; 1.0 mg/kg, 1 H) was -21 ± 4%. For the same compound, the “Variation (%) of PAS after treatment” value ([3]; 1.0 mg/kg, 1 H) was -16 ± 3%, the “Variation (%) of PAD after treatment” value ([3]; 1.0 mg/kg, 3 H) was -19 ± 3% and the “Variation (%) of PAS after treatment” value ([3]; 1.0 mg/kg, 3 H) was -12 ± 3%. The “Variation (%) of PAD after treatment” value ([3]; 1.0 mg/kg, 6 H) was -14 ± 2%, the “Variation (%) of PAS after treatment” value ([3]; 1.0 mg/kg, 6 H) was -9 ± 2% and the “Variation (%) of PAD after treatment” value ([3]; 1.0 mg/kg, 30 min) was -17 ± 3%. For the same compound, the “Variation (%) of PAS after treatment” value ([3]; 1.0 mg/kg, 30 min) was -11 ± 2%, the “Variation (%) of PAD after treatment” value ([3]; 3.0 mg/kg, 1 H) was -36 ± 3% and the “Variation (%) of PAS after treatment” value ([3]; 3.0 mg/kg, 1 H) was -26 ± 2%. The “Variation (%) of PAD after treatment” value ([3]; 3.0 mg/kg, 3 H) was -31 ± 3%, the “Variation (%) of PAS after treatment” value ([3]; 3.0 mg/kg, 3 H) was -25 ± 3% and the “Variation (%) of PAD after treatment” value ([3]; 3.0 mg/kg, 6 H) was -27 ± 3%. The “Variation (%) of PAS after treatment” value ([3]; 3.0 mg/kg, 6 H) was -21 ± 3%, the “Variation (%) of PAD after treatment” value ([3]; 3.0 mg/kg, 30 min) was -35 ± 3% and the “Variation (%) of PAS after treatment” value ([3]; 3.0 mg/kg, 30 min) was -24 ± 1%. The “Variation (%) of PAD after treatment” value ([4]; 1 H) was -20%, the “Variation (%) of PAS after treatment” value ([4]; 1 H) was -12% and the “Variation (%) of PAD after treatment” value ([4]; 3 H) was -32%. For the same compound, the “Variation (%) of PAS after treatment” value ([4]; 3 H) was -28%, the “Variation (%) of PAD after treatment” value ([4]; 7 H) was -44% and the “Variation (%) of PAS after treatment” value ([4]; 7 H) was -41%. The “Variation (%) of PAD after treatment” value ([4]; 24 H) was 0%, the “Variation (%) of PAS after treatment” value ([4]; 24 H) was -2% and the “Variation (%) of PAD after treatment” value ([4]; 30 min) was -14%. For the same compound, the “Variation (%) of PAS after treatment” value ([4]; 30 min) was -2%, the “Variation (%) of CVRM after treatment” value (anaesthetised dog; 30 μg/kg, 1 min) was -28.9% and the “Variation (%) of TPR after treatment” value (anaesthetised dog; 30 μg/kg, 1 min) was -9.8%. For the same compound, the “Variation (%) of CVRM after treatment” value (anaesthetised dog; 30 μg/kg, 10 min) was -20.2%, the “Variation (%) of TPR after treatment” value (anaesthetised dog; 30 μg/kg, 10 min) was -11.8% and the “Variation (%) of CVRM after treatment” value (anaesthetised dog; 30 μg/kg, 30 min) was -22.1%. For the same compound, the “Variation (%) of TPR after treatment” value (anaesthetised dog; 30 μg/kg, 30 min) was -11.8%, the “Variation (%) of CVRM after treatment” value (anaesthetised dog; 100 μg/kg, 1 min) was -54.7% and the “Variation (%) of TPR after treatment” value (anaesthetised dog; 100 μg/kg, 1 min) was -15.8%. For the same compound, the “Variation (%) of CVRM after treatment” value (anaesthetised dog; 100 μg/kg, 10 min) was -56.1%, the “Variation (%) of TPR after treatment” value (anaesthetised dog; 100 μg/kg, 10 min) was -14.7% and the “Variation (%) of CVRM after treatment” value (anaesthetised dog; 100 μg/kg, 30 min) was -50.5%. For the same compound, the “Variation (%) of TPR after treatment” value (anaesthetised dog; 100 μg/kg, 30 min) was -12.6%.
